In patent US5756502A, “Quinazolinone derivatives as cholyecystokinin (CCK) ligands” (Warner-Lambert Company, priority 1995, dated 1998):
Read-outs that look alike come from different tables or passages of the source. Blank lines part the entries; values can stand above or below the molecule they belong to.

Key:
[1] = system: CCK-A receptors; details: words; cited from earlier work
[2] = system: CCK-B receptors; details: words; cited from earlier work
[3] = biological target: CCK-A receptor; test: CCK-A receptor binding
Procedure: (§1) The biological activity of compounds of the present invention may be evaluated by employing an initial screening test which rapidly and accurately measures the binding of the tested compound to known CCK receptor sites. […] (See Hays, et al., Neuropeptides 1:53-62, 1980; and Satuer, et al., Science 208:1155-1156, 1980).
In displacement experiments, inhibition curves were analyzed by either logit-log plots or the iterative curve fitting computer program ALLFIT (DeLean, Munson, and Redbard, 1978) to provide estimates of the IC50 and nH (apparent Hill coefficient values). (IC50 values were defined as the concentration of test compound required to produce 50% inhibition of specific binding).
The inhibition constant (Ki) of the test compound was then calculated according to the Cheng-Prusoff equation: [formula] where [L] is the concentration of radiolabel and Ka is the equilibrium dissociation constant.
The Ki values for several representative compounds of the present invention are present in Table 1.
The following table represents the CCK-A and CCK-B receptor binding affinities of the compounds. [drawing 34]
The testing procedures are disclosed in Hays, et al., Neuropeptides 1:53-62, 1980; and Satuer, et al., Science 208:1155-1156, 1980.

[4] = biological target: T1, CCK-B receptor (Mus musculus, UniProt P56481); test: CCK-B receptor binding (displacement of tritiated-pentagastrin from mouse cerebral cortical membranes)
T1 construct: from tissue; host or cells: cerebral cortex of male CFLP mice (membranes)
T1 sequence (P56481 1-453): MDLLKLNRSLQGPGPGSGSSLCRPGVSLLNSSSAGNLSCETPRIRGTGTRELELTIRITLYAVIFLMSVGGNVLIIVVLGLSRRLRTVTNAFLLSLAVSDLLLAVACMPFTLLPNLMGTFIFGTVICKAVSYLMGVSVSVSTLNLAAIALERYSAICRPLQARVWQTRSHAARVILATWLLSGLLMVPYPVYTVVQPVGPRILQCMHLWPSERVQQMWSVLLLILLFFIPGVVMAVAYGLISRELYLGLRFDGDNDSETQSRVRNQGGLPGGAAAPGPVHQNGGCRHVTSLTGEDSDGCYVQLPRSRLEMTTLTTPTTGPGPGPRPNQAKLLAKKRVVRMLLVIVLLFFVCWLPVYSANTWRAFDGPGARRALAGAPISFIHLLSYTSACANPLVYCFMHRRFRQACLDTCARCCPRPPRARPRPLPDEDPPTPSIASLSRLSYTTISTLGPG
Procedure: as §1
In this screening test, the cerebral cortices taken from male CFLP mice weighing between 30 to 40 g were dissected on ice, weighed, and homogenized in 10 volumes of 50 mM Tris-HCl buffer (pH 7.4 at 0°-4° C.). The resulting suspension was centrifuged, the supernate was discarded, and the pellet was washed by resuspension in Tris-HCl buffer followed by recentrifugation. The final pellet was resuspended in 20 volumes of […] buffer (pH 7.2 at 23° C.) containing 130 mM NaCl, […], […].
In saturation studies, cerebral cortical membranes were incubated at 23° C. for 120 minutes in a final volume of 500 μL of Hepes incubation buffer (pH 7.2) together with 0.2-20 nM tritiated-pentagastrin (Amersham International, England).
In the displacement experiments, membranes were incubated with a single concentration (2 nM) of ligand, together with increasing concentrations (10^-11 to 10^-6 M) of competitive test compound. In each case, the nonspecific binding was defined as that persisting in the presence of the unlabeled octapeptide CCK26-33 (10^-6 M)
Following incubation, radioactivity bound to membranes was separated from that free in solution by rapid filtration through Whatman GF/B filters and washed three times with 4 mL of ice cold Tris-HCl buffer. Filters from samples incubated with tritiated-pentagastrin were placed in polyethylene vials with 4 mL of scintillation cocktail, and the radioactivity was estimated by liquid scintillation spectrometry (efficiency 47-52%). […]
Saturation curves for specific tritiated-pentagastrin binding to mouse cortical membranes were analyzed by the methods of Scatchard (Ann. New York Acad. Sci. 51:660-672, 1949), and Hill (J. Physiol. 40:IV-VIII, 1910), to provide estimates for the maximum number of binding sites (Bmax) and the equilibrium dissociation constant (Ka)
In displacement experiments, inhibition curves were analyzed by either logit-log plots or the iterative curve fitting computer program ALLFIT (DeLean, Munson, and Redbard, 1978) to provide estimates of the IC50 and nH (apparent Hill coefficient values). […]
The inhibition constant (Ki) of the test compound was then calculated according to the Cheng-Prusoff equation: [formula] where [L] is the concentration of radiolabel and Ka is the equilibrium dissociation constant. […]

[5] = 2 nM tritiated-pentagastrin, Hepes buffer pH 7.2, 23° C., read-out: CCK-B (Ki)

Molecule: gastrin: gastrin peptide sharing a common carboxy terminal pentapeptide sequence with CCK
affinity for CCK-A receptors [1]: lower affinity
affinity for CCK-B receptors [2]: high affinity

Ki ([3]; read-out: CCK-A (Ki)): 0.385 µM
Molecule: CC(C)Oc1cccc(-n2c(CNC(=O)Nc3ccc([N+](=O)[O-])cc3)nc3ccccc3c2=O)c1 [1 NH 4-NO2 Ph]

Ki ([3]; read-out: CCK-A (Ki)): 3.1 µM
Molecule: CC(C)Oc1cccc(-n2c(CNC(=O)NCc3ccc(Br)cc3)nc3ccccc3c2=O)c1 [1 NH 4-BrPhCH2]

Molecule: CCK-4
affinity for CCK-A receptors [1]: lower affinity
affinity for CCK-B receptors [2]: high affinity

Ki ([3]; read-out: CCK-A (Ki)): 0.674 µM
Molecule: CC(C)Oc1cccc(-n2c(CNC(=O)Nc3ccc(C(F)(F)F)cc3)nc3ccccc3c2=O)c1 [1 NH 4-CF3 Ph]

Ki ([3]; read-out: CCK-A (Ki)): 1.64 µM
Molecule: Cc1cccc(NC(=O)NCc2nc3ccccc3c(=O)n2-c2cccc(OC(C)C)c2)c1 [1 NH 3-MePh, Urea, N-[[3,4-dihydro-3-[3-(1-methylethoxy)phenyl]-4-2-quinazolinyl]methyl]-N-(3-methylphenyl)]

Ki [4, 5]: 0.62 µM
Molecule: CC(C)Oc1cccc(-n2c(CNC(=O)OCc3ccccc3)nc3ccccc3c2=O)c1

Molecule: CCK-8S: sulfated octapeptide (CCK-8S)
affinity for CCK-A receptors [1]: high affinity
affinity for CCK-B receptors [2]: high affinity

Ki ([3]; read-out: CCK-A (Ki)): 1.47 µM
Molecule: CCOC(=O)c1cccc(NC(=O)NCc2nc3ccccc3c(=O)n2-c2cccc(OC(C)C)c2)c1 [1 NH 3-COOEtPh, Benzoic Acid, 3-[[[3,4-dihydro-3-[3-(1-methylethoxy)phenyl]-4-oxo-2-quinazolinyl]methyl]amino]carbonylamino-, ethyl ester]

CCK-A, % @ 10 μM (in the Ki column) ([3]; @ 10 μM): 29%
Ki [4, 5]: 0.842 µM
Molecule: CC(C)Oc1cccc(-n2c(CNC(=O)c3cnc4ccccc4n3)nc3ccccc3c2=O)c1 [1 -- 2-Quinoxolinyl, 2-Quinoxalinecarboxamide, N-[[1,2-dihydro-3-[3-(1-methylethoxy)phenyl]-4-oxo-2-quinazolinyl]methyl]]

Ki ([3]; read-out: CCK-A (Ki)): 2.77 µM
Ki [4, 5]: 0.768 µM
Molecule: CC(C)Oc1cccc(-n2c(CCNC(=O)OCc3ccccc3)nc3ccccc3c2=O)c1 [2 O PhCH2]

Ki ([3]; read-out: CCK-A (Ki)): 1.63 µM
Molecule: CC(C)Oc1cccc(-n2c(CCNC(=O)Nc3ccc(Br)cc3)nc3ccccc3c2=O)c1 [2 NH 4-BrPh, Urea, N-(4-bromophenyl)-N'-[2-[3,4-dihydro-3-[3-(1-methylethoxy)phenyl]-4-oxo-2-quinazolinyl]ethyl]]

Ki ([3]; read-out: CCK-A (Ki)): 0.984 µM
Molecule: CC(C)Oc1cccc(-n2c(CNC(=O)Nc3ccc(Br)cc3)nc3ccccc3c2=O)c1 [1 NH 4-BrPh, Urea, N-(4-bromophenyl)-N-[[3,4-dihydro-3-[3-(1-methylethoxy)phenyl]-4-2-quinazolinyl]methyl]]

Ki ([3]; bound printed in μM in the Ki, nM column, read-out: CCK-A Ki (cell in μM)): > 1 µM
Ki ([4]; bound printed in μM in the Ki, nM column, read-out: CCK-B Ki (cell in μM)): > 1 µM
Molecule: Cc1ccc(S(=O)(=O)NC(=O)NCc2nc3ccccc3c(=O)n2-c2cccc(OC(C)C)c2)cc1 [1 NHSO2 4-CH3 Ph, Benzenesulfonamide, N-[[[[3,4-dihydro-[3-(1-methylethoxy)phenyl]-4-oxo-2-quinazolinyl]methyl]amino]carboxy]-4-methyl]

Molecule: CCK-8d: corresponding desulfated fragment CCK-8d
affinity for CCK-A receptors [1]: lower affinity
